Several values for one entry are separate records, joined by “and”; a condition that tells them apart may be missing. Equal values may be shown once. Read-outs that look alike come from different tables or passages of the source.
Columns and labels:
[1] = Microperfusion of the amygdala, oxytocin in microperfusates; assay type: in vivo, mouse; conditions: intranasal 20 ng, 0 min = 100, individual animals, listed as OT
Text: For microperfusion probe implantation, the male mice were with a subcutaneous injections of ketamine. The heads of anesthetised mice were fixed in a stereotactic frame (Narishige, Tokyo, Japan) and a 1 mm hole was drilled in the skull. The intact dura intact was then punctured to create defined opening of the meninges. Using the stereotactic frame, a healing dummy was slowly inserted into the three brain positions. The probe was fixed to the skull by using two anchor screws and biocompatible dental cement. All surgical procedures were completed within 30 min. A healing dummy was used to provide mechanical stability during the implantation and the healing period of 2 weeks. The microperfusion probe (a 4-mm length of the coaxial tube, 2.5 mm in diameter) consisting of a 20 G fluorinated ethylene propylene guide cannula was replaced before sampling with an inflow/outflow tubing on the day of the experiments. This tubing was connected to two glass Hamilton microsyringes placed in syringe pumps (Eicom, Osaka, Japan). Microperfusate was pumped into the probe at a flow rate of 2 µl/min, and the samples were withdrawn at the same flow rate. Sampling was conducted for 2 h. Both microprobes were perfused without sampling for 60 min before the first 30-min microperfusates from the amygdala, PVN, and prefrontal cortex were collected. The microperfusates were mixed under sterile conditions and consisted of 154 mM NaCl, 2.2 mM CaCl2, 5.6 mM KCl, 2.3 mM NaHCO3, and 0.15% BSA (pH 7.4)[80]. Beginning immediately after the nasal application, 4 additional microperfusates were taken at 30-min intervals. After the termination of the experiments, the brains were removed and snap-frozen to obtain 40-μm cryo-cut stained brain slices later for the histological verification of the perfusion site.

[2] = cited from earlier work
[3] = set-up: method as in earlier work; conditions: i.n. application of 50 μg oxytocin in female pigs; ref 18 (Rault et al.); cited from earlier work

SMILES: CC[C@H](C)[C@@H]1NC(=O)[C@H](Cc2ccc(O)cc2)NC(=O)[C@@H](N)CSSC[C@@H](C(=O)N2CCC[C@H]2C(=O)N[C@@H](CC(C)C)C(=O)NCC(N)=O)NC(=O)[C@H](CC(N)=O)NC(=O)[C@H](CCC(N)=O)NC1=O [oxytocin, Oxytocin]
- OT % in microperfusates of the amygdala ([1]; Ager-/- mice, 30 min): 116% and 89% and 169% and 98% and 65% and 54% and 55% and 105% and 67% and 87% and 79%
- OT % in microperfusates of the amygdala ([1]; Ager-/- mice, 60 min): 66% and 55% and 85% and 123% and 83% and 92% and 78% and 84% and 76% and 112% and 77% and 93% and 79%
- OT % in microperfusates of the amygdala ([1]; Ager-/- mice, 90 min): 137% and 158% and 73% and 162% and 90% and 65% and 76% and 99% and 129% and 131% and 83% and 110% and 163%
- OT % in microperfusates of the amygdala ([1]; WT mice, 30 min): 211% and 198% and 89% and 141% and 104% and 174%
- OT % in microperfusates of the amygdala ([1]; WT mice, 60 min): 190% and 195% and 144% and 170% and 93% and 133%
- OT % in microperfusates of the amygdala ([1]; WT mice, 90 min): 204% and 156% and 78% and 216% and 359% and 124%
- share of peripherally applied oxytocin that reaches the CNS ([2]; 5 μg, 10 min after subcutaneous or intraperitoneal administration, rats): approximately 0.002%
- bioavailability ([2]; LC/MS after administration of 500 μg oxytocin in rats): approximately 2%
- share of oxytocin peptide accumulated on the BBB ([2]; intracarotid artery bolus of 125I- or 3H-labelled oxytocin, rats): 1–2%
- bioavailability [3]: 0.001%

— PMC6389896 (Communications Biology, 2019)
